Experimental data: patent US20220257752A1, “NEW USE OF CYCLIC DINUCLEOTIDES” (priority 2019, published 2022)

What was measured:
[1] = system: H1N1 influenza A/WSN/33 (WSN)-OVA(I) strain; type: in vivo, mice; conditions: mouse, in vivo
[2] = system: H1N1 PR8 influenza A/WSN/33 (WSN)-OVA(I) strain; type: in vivo, mice
[3] = system: human adult peripheral blood; experiment: In vitro assay using human adult blood: cytokines in supernatant (multiplex array, IL-1β ELISA); type: cell-based
Excerpt: (§1) Adult peripheral blood for controls was collected from healthy volunteers. Cord blood was obtained by needle puncture of the umbilical cord vein right after delivery of healthy newborn donors at the Women's Clinic (Braunschweig Central Hospital). Signed informed consent from parents was obtained, ensuring that no ulterior modification of the genetic material contained or therapeutic use was involved in our study. Citrate anti-coagulated cord blood bags (Macopharma, France) were stored at room temperature before the in vitro assays.
(§2) Adult or cord blood was mixed 1:1 with 37° C. warm RPMI 1640 medium (Gibco) and incubated with adjuvants and controls according to previously described method (Dowling, D. J., et. al., 2013, PLoS One 8 (3):e58164.). Briefly, 20 μl of the adjuvants 10× were added to 180 μl of diluted blood in quadruplicates (in a 96 U shape well plate), and incubated at 37° C., 5% CO2 for 6 h. Supernatant fluids were assayed by flow cytometry in multiplex arrays (Biolegend) or in an ELISA reader for IL-1β (eBioscience).
(§3) One of the well-established methods to assess adjuvant immunogenicity in human neonates is the use of cord blood as a surrogate (Dowling, D. J., et. al., 2013, PLoS One 8 (3):e58164. doi:). Therefore, to assess the secretory cytokine profile elicited by CDA in neonates, we incubated cord and adult blood in the presence of adjuvants and controls for 6 h. A bead-based multiplexed immunoassay array was employed in order to detect cytokines in the supernatant. […] Remarkably, CDA increased the secretion of Th1 cytokines, which are important to counteract the Th2 bias present at birth (Debock, I., et. al., 2013, J Immunol 191 (3):1231-9. doi: 10.4049/jimmunol.1203288).

[4] = system: human cord blood; experiment: In vitro assay using human cord blood: cytokines in supernatant (multiplex array, IL-1β ELISA); type: cell-based
Excerpt: as §1, §2, §3

[5] = system: OVA-specific IgG; type: in vivo, mice; conditions: versus OVA alone, PBS and R848

| Molecule | body weight over 14 days after challenge [1] | protection conferred ([2]; mouse, in vivo) | protective CTL response against influenza virus expressing a CD8 restricted epitope ([2]; mouse, in vivo) | differences in protection during the 48 h of maximal weight loss ([2]; versus the other adjuvants and controls, unpaired t test p≤0.05) | IL-6, IL-21 and IL-10 (Tfh profile cytokines) concentrations ([3]; 6 h incubation) | TNF-α and IFN-γ (Th1 cytokines) concentrations in supernatant ([3]; 6 h incubation, compared to R848 or medium) | stimulation of cytokines produced by Th2 and Th17 cells ([3]; compared to R848 treatment and control cells) | IL-9 ([3]; over the other treatments) | IL-1β (pro-inflammatory cytokine) by ELISA ([3]; with respect to R848) | Th17 cytokines ([4]; after treatment, blood type not given) | IL-9 ([4]; cord blood samples) | IL-6, IL-21 and IL-10 (Tfh profile cytokines) concentrations ([4]; cord blood, 6 h incubation) | TNF-α and IFN-γ (Th1 cytokines) concentrations in supernatant ([4]; cord blood, 6 h incubation, compared to R848 or medium) | stimulation of cytokines produced by Th2 and Th17 cells ([4]; cord blood, compared to R848 treatment and control cells) | IL-1β (pro-inflammatory cytokine) by ELISA ([4]; cord blood, with respect to R848) | OVA-specific IgG titers in sera [5] | deaths after challenge ([2]; mouse, in vivo) |
| --- | --- | --- | --- | --- | --- | --- | --- | --- | --- | --- | --- | --- | --- | --- | --- | --- | --- |
| CCOCc1nc2c(N)nc3ccccc3c2n1CC(C)(C)O [R848, reference compound] | lost weight |  |  |  |  |  |  |  |  |  |  |  |  |  |  |  |  |
| Nc1ncnc2c1ncn2[C@@H]1O[C@@H]2COP(=O)(O)O[C@H]3[C@@H](O)[C@H](n4cnc5c(N)ncnc54)O[C@@H]3COP(=O)(O)O[C@H]2[C@H]1O [CDA, cyclic bis(3′-5′)diadenylic acid] |  | significantly higher | able to promote a protective CTL response | significant | Slightly similar results | differences were not observed | more modest | difference was accentuated | slightly decreased | particularly decreased | slightly decreased | higher concentrations | higher concentrations | more modest | slightly decreased | higher titers |  |
| OVA: ovalbumin antigen (EndoGrade, Hyglos) given without adjuvant (protein, UniProt P01012 2-386, looked up) Ovalbumin: GSIGAASMEFCFDVFKELKVHHANENIFYCPIAIMSALAMVYLGAKDSTRTQINKVVRFDKLPGFGDSIEAQCGTSVNVHSSLRDILNQITKPNDVYSFSLASRLYAEERYPILPEYLQCVKELYRGGLEPINFQTAADQARELINSWVESQTNGIIRNVLQPSSVDSQTAMVLVNAIVFKGLWEKAFKDEDTQAMPFRVTEQESKPVQMMYQIGLFRVASMASEKMKILELPFASGTMSMLVLLPDEVSGLEQLESIINFEKLTEWTSSNVMEERKIKVYLPRMKMEEKYNLTSVLMAMGITDVFSSSANLSGISSAESLKISQAVHAAHAEINEAGREVVGSAEAGVDAASVSEEFRADHPFLFCIKHIATNAVLFFGRCVSP | lost weight |  |  |  |  |  |  |  |  |  |  |  |  |  |  |  | no deaths |
